Measurements from PMC6274922, “Defined Small Molecules Produced by Himalayan Medicinal Plants Display Immunomodulatory Properties” (International Journal of Molecular Sciences, 2018).
Values after ≈ are worked out from the molar mass of the structure shown.

Columns and labels:
[1] = tested on: immortalized non-cancerous H69 human cholangiocyte cell line; test: Cytotoxicity by xCELLigence RTCA system
Description: (§1) The immortalized non-malignant human cholangiocyte cell line H69 is a SV40-transformed human bile duct epithelial cell line originally derived from a normal liver harvested for transplantation. […] Cytotoxicity screening of the test compounds against the H69 cell line was performed using an xCELLigence SP system (ACEA Biosciences Inc., San Diego, CA, USA) as described by us previously. All experiments were carried out as per the manufacturer’s instructions with 0.25–60 min read intervals using the real time cell assay (RTCA) software (ACEA Biosciences Inc., USA). All assays were conducted in triplicate. Inter-well spaces were filled with 100 µL of culture medium or PBS to prevent evaporation. The E-plates containing cells were seeded at 5000 cells/well and incubated overnight at 37 °C with 5% CO2. The cells were then treated with prepared concentrations (50, 100, 500 µg/mL) of the test compounds and the viability of the cells was monitored continually for 24 h.
(§2) We determined the IC50 values of test compounds based on the normalised cell index (nCI) for cells, as described previously. Briefly, the 24 h nCI relative to the negative DMSO treated controls (deemed 100%) on the y-axis was plotted against the log concentration value x-axis.

in vitro = conditions: human
Description: as §1, §2

HT-29 cancer cell lines = tested on: HT-29 cancer cell lines; set-up: method as in PMID 29555944; conditions: cited from earlier work
[2] = tested on: DC2.4 murine dendritic cell line; format: cell-based; conditions: for Median Fluorescence Intensity (MFI) of surface MHC-I expression: representative FACS plots, DC2.4 cells, media only control MFI 732
lung carcinoma (A549) = tested on: lung carcinoma (A549); set-up: method as in PMID 29555944; conditions: cited from earlier work
[3] = tested on: multi-drug resistant Plasmodium falciparum; conditions: cited from earlier work
[4] = tested on: DC2.4 murine dendritic cell line; test: Gene expression analysis by RT-qPCR in DC2.4 cells; format: cell-based, mouse; conditions: for modulation of gene expression, in words: DC2.4 cells, mRNA correlated with FACS RFI (Figure 3)
Description: The following day, cells were harvested and 20,000 live cells from each condition were sorted by FACS into RLT buffer and RNA extracted for mRNA analysis by RT-qPCR. The relative gene expression for each gene was calculated for each compound and compared to the media control. We then correlated gene expression with protein expression represented by the FACS RFI (Figure 3). […] The SUM of the changes for all genes and proteins relative to the media-only control is summarized in the bottom right corner of Figure 3 SUM.
DC2.4 cells were co-cultured overnight with test compounds as described above. The following day, cells were harvested and 20,000 live cells from each condition were sorted by FACS into RLT buffer and stored at −70 °C. On the day of extraction, frozen cell lysates were thawed quickly on ice and mRNA was extracted using the RNEasy micro kit (Qiagen, Chadstone Centre, VIC, Australia) according to the manufacturer’s instructions. cDNA was synthesized using oligo-dT and AMVRT (Promega, Sydney, Australia) according to the manufacturer’s instructions. Gene expression was measured using individual Taqman gene expression assays (Applied Biosystems, Foster City, CA, USA) and Platinum Taq polymerase (Life Technologies, Carlsbad, CA, USA) in a 15 μL volume reaction using a Rotorgene 3000 PCR machine (Corbett Research, Mortlake, Australia) with the following conditions: 2 min at 50 °C for calibration of fluorescence gain values, then denaturing at for 2 min at 95 °C, followed by 45 cycles of 5 s at 95 °C and 30 s at 60 °C. Gene expression was quantified relative to a standard curve generated from a titration of cloned cDNA and relative gene expression was calculated by dividing the expression value of the test sample by that of the cells grown in media only. All assays were conducted in triplicate.

[5] = tested on: A431 epithelial cancer cell lines; set-up: method as in PMID 9584334; conditions: in vitro; cited from earlier work
HL60 = tested on: HL60; set-up: method as in PMID 9584334; conditions: in vitro; cited from earlier work
[6] = tested on: DC2.4 murine dendritic cell line; test: Combined FACS + PCR score of immunomodulation in DC2.4 cells; format: cell-based, mouse
Description: The following day, cells were harvested and 20,000 live cells from each condition were sorted by FACS into RLT buffer and RNA extracted for mRNA analysis by RT-qPCR. The relative gene expression for each gene was calculated for each compound and compared to the media control.
DC2.4 cells (4000 cells in exponential phase/200 µL) were cultured in 96-well flat bottom plates overnight with a titration of the test compound in media (stock concentration of 1 mg/mL and further titrated in tissue culture media at 4 mid-log dilutions starting at 100 µg/mL) or media only (modified DMEM, 50 µM 2-mercaptoethanol and 216 mg/L L-glutamine, 10% heat-inactivated FCS). Each compound was tested twice, in replicate assays. […] The RFI (relative fluorescence intensity) for each parameter was calculated by dividing the median fluorescence intensity (MFI) of the test sample by that of the control (media-only) samples.
DC2.4 cells were co-cultured overnight with test compounds as described above. […] Gene expression was quantified relative to a standard curve generated from a titration of cloned cDNA and relative gene expression was calculated by dividing the expression value of the test sample by that of the cells grown in media only. […]

Question: For `CC#CC#C/C=C1\C=CC2(CCCO2)O1` (centres unmarked) [Compound 5, (E)-spiroether], which cell death ([1]; H69 cells, from 6 h with 100 µg/mL) is on record?
Answer: 96.5%

Question: And the IC50 at 24 h (in vitro)?
Answer: < 1 µg/mL

Question: With `O=c1cc(-c2ccc(O)c(O)c2)oc2cc(O)cc(O)c12` [Compound 6, luteolin] as the compound, how does the IC50 at 24 h (in vitro) read?
Answer: 30 µg/mL (≈ 105 µM)

Question: For `COc1cc2c(cc1O)[C@@H]1Cc3ccc(OC)c(O)c3CN1CC2` [Compound 10, scoulerine], which “cytotoxic activity, in words” value (HT-29 cancer cell lines) is on record?
Answer: significant cytotoxic activity

Question: And the “Median Fluorescence Intensity (MFI) of surface MHC-I expression” value [2]?
Answer: 1582

Question: What about the “cytotoxic activity, in words” value (lung carcinoma (A549)) of the same compound?
Answer: significant cytotoxic activity

Question: And the “antimalarial activity, in words” value [3]?
Answer: potent antimalarial drug lead compound

Question: And the “modulation of gene expression, in words” value [4]?
Answer: strong up-regulator of several important genes including MHC-I, CD80 and CD86

Question: For `COc1c2ccoc2cc2oc(=O)ccc12` [Compound 13, bergapten], which “Median Fluorescence Intensity (MFI) of surface MHC-I expression” value [2] is on record?
Answer: 304

Question: And the “modulation of gene expression, in words” value [4]?
Answer: suppression of expression of some genes, and notably MHC-I at both the gene and protein level

Question: What about the “anti-proliferative activity, in words” value [5] of the same compound?
Answer: anti-proliferative activity

Question: What about the IC50 at 24 h (in vitro) of the same compound?
Answer: 126 µg/mL (≈ 585 µM)

Question: What about the “anti-proliferative activity, in words” value (HL60) of the same compound?
Answer: anti-proliferative activity

Question: What does the source list for protopine [Compound 8]?
Answer: FACS SUM ([2]; sum of the RFI of the 7 surface markers): 9.95; Ave. ([6]; average of FACS and PCR values): 1.43; SUM FACS + PCR ([6]; sum of all FACS RFI and PCR relative expression values): 19.96; PCR SUM ([4]; sum of the relative expression of the 7 genes): 10.01; IC50 (cytotoxicity) [1]: 9 µg/mL; cell toxicity ([1]; H69 cells, at 24 h): 68%; cell toxicity ([1]; H69 cells, from 6 h): 23%
